Series [1] addresses butyrylcholinesterase (BChE) derived from human (Homo sapiens, UniProt P06276). In words: biochemical.
A short description of series [2]: Acute toxicity after oral administration. Particulars: rat, in vivo; oral administration to rats; read-out: acute toxicity values (LD₅₀). On the procedure:
The acute toxicity values (LD₅₀) of the compounds of the present invention 6 and 41 after oral administration to rats were not less than 50 mg/kg.

Series [3] addresses acetylcholinesterase (AChE) derived from human (Homo sapiens, UniProt P22303). Description: biochemical.
The target in series [4] is T1, acetylcholinesterase (AChE) (Rattus norvegicus, UniProt P37136).
T1 construct: An enzyme solution was a homogenized solution of forebrain from male Wistar rat; from tissue; host or cells: forebrain of male Wistar rat (homogenate)
T1 sequence (P37136 32-614): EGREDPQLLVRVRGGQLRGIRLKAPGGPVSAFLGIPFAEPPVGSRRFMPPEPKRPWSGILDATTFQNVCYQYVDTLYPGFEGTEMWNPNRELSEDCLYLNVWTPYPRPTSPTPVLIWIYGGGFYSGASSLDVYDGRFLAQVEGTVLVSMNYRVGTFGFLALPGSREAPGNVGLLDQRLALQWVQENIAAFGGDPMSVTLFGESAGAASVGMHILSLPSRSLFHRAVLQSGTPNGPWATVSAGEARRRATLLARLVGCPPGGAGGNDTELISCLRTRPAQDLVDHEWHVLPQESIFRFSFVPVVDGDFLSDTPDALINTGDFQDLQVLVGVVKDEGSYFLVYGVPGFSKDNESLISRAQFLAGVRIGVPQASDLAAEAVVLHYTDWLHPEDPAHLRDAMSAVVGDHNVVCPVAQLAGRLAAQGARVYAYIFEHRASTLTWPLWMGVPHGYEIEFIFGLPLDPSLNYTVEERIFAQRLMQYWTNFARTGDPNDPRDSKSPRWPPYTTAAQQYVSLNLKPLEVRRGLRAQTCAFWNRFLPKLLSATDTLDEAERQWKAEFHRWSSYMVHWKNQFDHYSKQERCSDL
In words: biochemical. Also noted: species or system male Wistar rat. On the procedure: An enzyme solution was a homogenized solution of forebrain from male Wistar rat in 0.1M phosphate buffer (pH 8.0). Acetylthiocholine was used as a substrate for acetylcholinesterase (AChE) and the density of thionitrobenzoate (yellow) produced by the following reaction was measured with a spectrophotometer (OD₄₁₂). [drawing 27] Thiocholine + dithiobisnitrobenzoate → thionitrobenzoate Test compounds were dissolved in dimethylsulfoxide and diluted with 0.1M phosphate buffer (pH 8.0).

For the next series, the target named is sigma receptor. Description: Sigma receptor binding test (3H-DTG, rat cerebral cortex membrane fractions). The arrangement: species or system Male Wistar rats. Particulars: rat cerebral cortex membranes, 3H-DTG 2.5 nM, 25°C 60 minutes, Ki = IC50/[1 + (L/Kd)], Kd 26.3 nM; read-out: Sigma receptor binding assay ³H-DTG (Ki). On the procedure: Male Wistar rats weighing 250-300 g were decapitated and the brains were removed. Cerebral cortex was dissected on ice, and the brain tissues were homogenized in 20 volumes of Tris-HCl buffer (pH 8.0, 25°C) containing 320 mM sucrose. The homogenate was centrifuged at 1000 × g for 10 minutes. The obtained supernatant was centrifuged at 31,000 × g for 15 minutes and the pellets obtained were suspended in the same Tris-HCl buffer, followed by incubation at 37°C for 10 minutes. Centrifugation was repeated twice and the final pellets were suspended in 50 mM Tris-HCl buffer (pH 8.0, 25°C) and used as membrane fractions.
A binding inhibitory test was conducted by adding [³H]-1,3-di-o-tolylguanidine (³H-DTG, 39.4 Ci/mmol, New England Nuclear, final concentration 2.5 nM) and respective test compounds (5 different concentrations) to the membrane fractions (0.9 ml, 0.5-0.8 mg) and then the above-mentioned buffer to the final volume of 1 ml. The mixtures were incubated at 25°C for 60 minutes. The reaction mixture was suction-filtered through Whatman GF/B filters which had been treated previously with 0.1% polyethyleneimine and washed three times with 3 ml of 10 mM Tris-HCl buffer (pH 7.7, 25°C). Then, the β rays of the bound ³H-DTG on the filter were measured by a liquid scintillation counter.
IC₅₀ values were determined graphically and Ki values were calculated by the numerical equation Ki = IC₅₀/[1 + (L/Kd)] [formula] wherein L is a concentration of radioligand and Kd (26.3 nM) is a dissociation constant between tritiated ligand and the receptor.

[5] abbreviates: AChE derived from human, substrate acetylthiocholine, read-out: IC₅₀ AChE.
Setting [6] is: IC50 for human BChE divided by IC50 for human AChE.
[7] abbreviates: BChE derived from human, substrate butyrylthiocholine, read-out: IC₅₀ BChE.
Where [8] appears, read: homogenized forebrain of male Wistar rat, substrate acetylthiocholine, 0.1M phosphate buffer pH 8.0, read-out: Acetylcholinesterase inhibition IC₅₀.

Counter-ions that a name gives are not always drawn. Like-named read-outs stand apart in the source and are kept apart here.

Sequence of butyrylcholinesterase (BChE) derived from human (P06276 29-602): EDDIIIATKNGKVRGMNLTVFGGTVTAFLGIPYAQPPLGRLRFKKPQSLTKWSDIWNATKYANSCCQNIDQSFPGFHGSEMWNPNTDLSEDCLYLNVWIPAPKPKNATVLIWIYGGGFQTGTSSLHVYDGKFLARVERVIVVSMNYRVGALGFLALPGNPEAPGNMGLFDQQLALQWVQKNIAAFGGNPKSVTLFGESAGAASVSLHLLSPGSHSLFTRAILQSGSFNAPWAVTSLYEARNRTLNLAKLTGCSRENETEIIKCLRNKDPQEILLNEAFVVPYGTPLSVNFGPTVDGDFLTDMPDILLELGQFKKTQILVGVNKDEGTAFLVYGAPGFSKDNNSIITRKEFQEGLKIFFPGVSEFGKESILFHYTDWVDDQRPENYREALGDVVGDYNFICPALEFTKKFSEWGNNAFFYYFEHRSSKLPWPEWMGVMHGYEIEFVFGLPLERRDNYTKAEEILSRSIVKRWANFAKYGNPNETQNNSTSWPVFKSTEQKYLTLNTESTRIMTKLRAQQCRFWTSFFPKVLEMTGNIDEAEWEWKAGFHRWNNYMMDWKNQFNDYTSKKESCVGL
Sequence of acetylcholinesterase (AChE) derived from human (P22303 32-614): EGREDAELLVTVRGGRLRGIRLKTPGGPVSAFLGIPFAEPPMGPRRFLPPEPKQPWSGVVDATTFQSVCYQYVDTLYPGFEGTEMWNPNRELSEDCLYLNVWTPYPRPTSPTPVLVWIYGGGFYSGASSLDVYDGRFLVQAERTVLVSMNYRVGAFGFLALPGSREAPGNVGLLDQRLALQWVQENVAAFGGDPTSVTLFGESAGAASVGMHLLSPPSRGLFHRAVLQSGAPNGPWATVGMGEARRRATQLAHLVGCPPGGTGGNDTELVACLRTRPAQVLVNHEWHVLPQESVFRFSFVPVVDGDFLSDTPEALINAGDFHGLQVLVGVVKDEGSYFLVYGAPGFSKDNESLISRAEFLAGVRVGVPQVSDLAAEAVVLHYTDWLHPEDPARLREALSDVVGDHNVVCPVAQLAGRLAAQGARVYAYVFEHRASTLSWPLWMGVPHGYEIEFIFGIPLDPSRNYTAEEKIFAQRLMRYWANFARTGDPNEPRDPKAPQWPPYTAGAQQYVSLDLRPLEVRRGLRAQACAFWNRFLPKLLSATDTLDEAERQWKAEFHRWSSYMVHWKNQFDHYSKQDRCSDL

For `CC(=O)Nc1ccc2c(CCC3CCN(Cc4ccccc4)CC3)noc2c1` [Example 6, 6-acetylamino-3-(2-(1-benzyl-4-piperidyl)ethyl)-1,2-benzisoxazole], the IC50 in series [1] amounted to 9500 nM; in series [3] (setting [5]), 2.1 nM. For the same compound, the LD50 in series [2] is at least 50 mg/kg. Moreover, the “Selectivity IC₅₀ (BChE)/IC₅₀ (AChE)” value in series [3] was 4,500.
On to `CN(C)C(=S)Oc1ccc2c(CCC3CCN(Cc4ccccc4)CC3)noc2c1` [Example 11], for which the IC50 in series [1] is over 10000 nM; in series [3], 0.5 nM. For the same compound, the “Selectivity IC₅₀ (BChE)/IC₅₀ (AChE)” value in series [3] (setting [6]) is reported as >20,000.
`COc1ccc2c(CCC3CCN(Cc4ccccc4)CC3)noc2c1OC` [Example 19, 3-(2-(1-benzyl-4-piperidyl)ethyl)-6,7-dimethoxy-1,2-benzisoxazole]: the IC50 in series [1] (setting [7]) was determined as 7500 nM; in series [3] (setting [5]) it was 1.8 nM; in series [4] (setting [8]) it was 0.38 nM. In addition, in series [3] (setting [6]), the “Selectivity IC₅₀ (BChE)/IC₅₀ (AChE)” value is 4,200.
`CNC(=O)Oc1cccc(CN2CCC(CCc3noc4c(OC)c(OC)ccc34)CC2)c1` [Example 23, 3-(2-(1-(3-(N-methylcarbamoyloxy)benzyl)-4-piperidyl)ethyl)-6,7-dimethoxy-1,2-benzisoxazole] yielded an IC50 in series [4] of 0.34 nM.
As for `CC(=O)N(C)c1ccc2c(CCC3CCN(Cc4ccccc4)CC3)noc2c1` [Example 41, 3-(2-(1-Benzyl-4-piperidyl)ethyl)-6-(N-methylacetamino)-1,2-benzisoxazole], the IC50 in series [1] (setting [7]) turned out to be 17000 nM; in series [3] (setting [5]) it was 4.6 nM. For the same compound, in series [2], the LD50 was at least 50 mg/kg. Also, in series [3] (setting [6]), the “Selectivity IC₅₀ (BChE)/IC₅₀ (AChE)” value is 3,700.
On to `Cc1ccc2onc(OCCC3CCN(CC4CCCCC4)CC3)c2c1` [Example 160, 3-(2-(1-Cyclohexylmethyl-4-piperidyl)ethyloxy)-5-methyl-1,2-benzisoxazole fumarate], for which the Ki on sigma receptor came out at 0.23 nM.
Turning to `Cc1ccc2c(OCCC3CCN(CC4CCCCC4)CC3)noc2c1` [Example 164, 3-(2-(1-Cyclohexylmethyl-4-piperidyl)ethyloxy)-6-methyl-1,2-benzisoxazole fumarate], at sigma receptor, the Ki turned out to be 0.37 nM.
As for `O=C(Nc1ccc2c(=O)n(CCCC3CCN(Cc4ccccc4)CC3)oc2c1)c1ccccc1` [Example 198, 6-benzoylamino-2-(3-(1-benzyl-4-piperidyl)propyl)-1,2-benzisoxazol-3(2H)-one], the IC50 worked out at 3600 nM in series [1] (setting [7]) and 0.94 nM in series [3] (setting [5]). In series [3] (setting [6]), the “Selectivity IC₅₀ (BChE)/IC₅₀ (AChE)” value is listed as 3,800.
Take `Cc1ccc2c(=O)n(CCC3CCN(CC4CCCCC4)CC3)oc2c1` [Example 227, 2-(2-(1-Cyclohexylmethyl-4-piperidyl)ethyl)-6-methyl-1,2-benzisoxazol-3(2H)-one fumarate]: the Ki on sigma receptor was determined as 0.55 nM.
With `Cc1ccc2on(CCC3CCN(CC4CCCCC4)CC3)c(=O)c2c1` [Example 231, 2-(2-(1-Cyclohexylmethyl-4-piperidyl)ethyl)-5-methyl-1,2-benzisoxazol-3(2H)-one fumarate], the Ki at sigma receptor was 0.42 nM.
As to `O=C(Nc1ccc2c(=O)n(CCC3CCN(Cc4ccccc4)CC3)oc2c1)c1ccccc1` [Example 252, 6-Benzoylamino-2-(2-(1-benzyl-4-piperidyl)ethyl)-1,2-benzisoxazol-3(2H)-one], the IC50 in series [4] (setting [8]) amounted to 0.73 nM.

By Ki is commonly meant the dissociation constant of the complex between target and ligand, obtained from inhibition or displacement.

Values taken from patent EP0602242A1, “BENZISOXAZOLE COMPOUND AND USE THEREOF” (priority 1991, dated 1993).
